Where two headings read alike, the source gives them in different places. *1 amine or outer side, *2 acyl side, *3 side chain or, on linkers, in order; H or OH if unused. Where a SMILES comes first, the peptide text is derived from it. Bridges are numbered along the chain shown (N, C = ends). [ ]: non-standard residue; d: D form. The star is where a group is joined. hPhe(3-Cl-4-CF3) = N[C@@H](CCc1ccc(C(F)(F)F)c(Cl)c1)C(=O)O; X20 = Cc1ccc(C[C@@H](C(=O)[*:2])N(CC2CCCC2)[*:1])cc1; NMeGly(cPent) = CN[C@H](C(=O)O)C1CCCC1; NMeD = CN[C@@H](CC(=O)O)C(=O)O; NMeL = CN[C@@H](CC(C)C)C(=O)O; Morpholide = C1CN(*)CCO1; NMeA = CN[C@@H](C)C(=O)O; Ac5c = NC1(C(=O)O)CCCC1; Aze = O=C(O)[C@@H]1CCN1; Sar = CNCC(=O)O
Key:
[1] = molecular target: GDP-bound HRAS wild-type protein (Homo sapiens, UniProt P01112); assay: Binding to HRAS by surface plasmon resonance (SPR), Single Cycle Kinetics; settings: SPR, GDP-bound HRAS wild-type protein vs GDP-bound KRAS wild-type protein
GDP-bound HRAS wild-type protein, sequence (P01112 whole entry): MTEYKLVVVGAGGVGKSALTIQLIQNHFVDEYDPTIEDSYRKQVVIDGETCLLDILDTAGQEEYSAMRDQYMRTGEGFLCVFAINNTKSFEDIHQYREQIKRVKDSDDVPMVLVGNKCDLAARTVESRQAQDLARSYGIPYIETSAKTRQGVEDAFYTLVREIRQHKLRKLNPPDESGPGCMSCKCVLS

[2] = molecular target: GDP-bound NRAS wild-type protein (Homo sapiens, UniProt P01111); assay: Binding to NRAS by surface plasmon resonance (SPR), Single Cycle Kinetics; settings: SPR, GDP-bound NRAS wild-type protein vs GDP-bound KRAS wild-type protein
GDP-bound NRAS wild-type protein, sequence (P01111 whole entry): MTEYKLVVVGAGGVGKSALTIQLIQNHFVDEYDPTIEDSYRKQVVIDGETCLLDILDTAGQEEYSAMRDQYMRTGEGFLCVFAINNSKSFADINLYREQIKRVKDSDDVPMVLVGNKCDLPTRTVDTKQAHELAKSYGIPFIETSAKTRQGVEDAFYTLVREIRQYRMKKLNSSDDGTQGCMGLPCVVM

[3] = molecular target: GDP-bound KRAS wild-type protein (Homo sapiens, UniProt P01116); assay: Binding to KRAS by surface plasmon resonance (SPR), Single Cycle Kinetics; settings: GDP-bound KRAS wild-type protein, read-out: KRAS KD
GDP-bound KRAS wild-type protein, sequence (P01116 whole entry): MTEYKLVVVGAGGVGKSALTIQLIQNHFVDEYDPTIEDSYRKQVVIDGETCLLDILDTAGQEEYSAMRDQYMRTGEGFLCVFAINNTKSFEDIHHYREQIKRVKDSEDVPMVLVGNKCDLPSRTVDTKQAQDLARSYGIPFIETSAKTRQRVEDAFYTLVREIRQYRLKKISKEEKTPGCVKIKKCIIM

[4] = SPR Single Cycle Kinetics, 1:1 binding model
[5] = SPR, Single Cycle Kinetics, 1:1 binding model

Kd ([3]; SPR, Single Cycle Kinetics) [nM] | Kd [3, 4] [nM] | Kd [3, 5] [nM] | Compound | HRAS/KRAS (ratio of KD value for HRAS to KD value for KRAS) [1] | NRAS/KRAS (ratio of KD value for NRAS to KD value for KRAS) [2] | HRAS/KRAS (ratio of KD value for HRAS to KD value for KRAS) ([1]; KD ratio class) | NRAS/KRAS (ratio of KD value for NRAS to KD value for KRAS) ([2]; KD ratio class) | other results
0.06 |  |  | CCO[C@@H]1C[C@H]2C(=O)NC3(CCC3)C(=O)N(C)[C@@H](C3CCCC3)C(=O)N(C)[C@H](C(=O)N(C)C)CC(=O)N(C)[C@@H](CC)C(=O)N[C@@H]([C@@H](C)CC)C(=O)N(C)CC(=O)N(C)[C@H]3CCCCCN(C3=O)[C@@H](Cc3ccc(F)cc3C)C(=O)N(C)CC(=O)N[C@@H](CCc3cc(F)c(C(F)(F)F)c(F)c3)C(=O)N2C1 [PP0911] | B (a compound having 3 or more and less than 10 is denoted as B) | B (a compound having 3 or more and less than 10 is denoted as B) |  |  | 
 | 2.7 |  | CC[C@H](C)[C@@H]1NC(=O)[C@H](CC(C)C)N(C)C(=O)C[C@@H](C(=O)N2CCOCC2)N(C)C(=O)[C@H](C2CCCC2)N(C)C(=O)C2(CCCC2)NC(=O)[C@@H]2CCCN2C(=O)[C@H](CCc2ccc(C(F)(F)F)c(Cl)c2)NC(=O)CN(C)C(=O)[C@H](Cc2ccc(C)cc2)N(CC2CCCC2)C(=O)[C@@H]2CCN2C(=O)[C@H](C)N(C)C1=O [PP0084] ([NMeL]I[NMeA][Aze][X20][Sar][hPhe(3-Cl-4-CF3)]P[Ac5c][NMeGly(cPent)][NMeD]-Morpholide; lactam N-11) | B (a compound having 3 or more and less than 10 is denoted as B) | C (A compound having a KD ratio of 0.1 or more and less than 3 is denoted as C) |  |  | 
 | 0.47 |  | CCO[C@@H]1C[C@H]2C(=O)NC3(CCC3)C(=O)N(C)[C@@H](C3CCCC3)C(=O)N(C)[C@H](C(=O)N3CCOCC3)CC(=O)N(C)[C@@H](CC)C(=O)N[C@@H]([C@@H](C)CC)C(=O)N(C)CC(=O)N(C)[C@H]3CCCCCN(C3=O)[C@@H](Cc3ccc(C(F)(F)F)cc3)C(=O)N(C)CC(=O)N[C@@H](CCc3cc(F)c(C(F)(F)F)c(F)c3)C(=O)N2C1 [PP0678] |  |  |  |  | HRAS/KRAS (ratio of KD value with respect to HRAS to KD value with respect to KRAS) [1]: B (a compound having 3 or more and less than 10 is denoted as B); NRAS/KRAS (ratio of KD value with respect to NRAS to KD value with respect to KRAS) [2]: B (a compound having 3 or more and less than 10 is denoted as B)
 |  | 0.34 | CC[C@H](C)[C@@H]1NC(=O)[C@H](CC2CC2)N(C)C(=O)C[C@@H](C(=O)N2CCCC2)N(C)C(=O)[C@H](C2CCCC2)N(C)C(=O)C2(CCCC2)NC(=O)[C@@H]2C[C@@H](C(F)(F)F)CN2C(=O)[C@H](CCc2cc(F)c(C(F)(F)F)c(F)c2)NC(=O)CN(C)C(=O)[C@H](Cc2ccc(C(F)(F)F)cc2)N2CC/C=C\C[C@@H](C2=O)N(C)C(=O)CN(C)C1=O [PP1506] |  |  | A (a compound having 10 or more and less than 20 is denoted as A) | AA (a compound having 20 or more is denoted as AA) | 
 |  | 0.051 | CC[C@H](C)[C@@H]1NC(=O)[C@H](CC2CC2)N(C)C(=O)C[C@@H](C(=O)N(C)CC)N(C)C(=O)[C@H](C2CCCC2)N(C)C(=O)C2(CC(C)(C)C2)NC(=O)[C@@H]2C[C@@H](F)CN2C(=O)[C@H](CCc2cc(F)c(C(F)(F)F)c(F)c2)NC(=O)CN(C)C(=O)[C@H](Cc2ccc(C(F)(F)F)cc2)N2CC/C=C\C[C@@H](C2=O)N(C)C(=O)CN(C)C1=O [PP1570] |  |  | A (a compound having 10 or more and less than 20 is denoted as A) | AA (a compound having 20 or more is denoted as AA) | 
0.15 |  |  | C#CCN1CC(=O)N(C)[C@H]2C/C=C\CCN(C2=O)[C@@H](Cc2ccc(C(F)(F)F)cc2)C(=O)N(C)CC(=O)N[C@@H](CCc2cc(F)c(C(F)(F)F)c(F)c2)C(=O)N2C[C@H](OCC)C[C@H]2C(=O)NC2(CC(C)(C)C2)C(=O)N(C)[C@@H](C2CCCC2)C(=O)N(C)[C@H](C(=O)N(C)C)CC(=O)N(C)[C@@H](CC)C(=O)N[C@@H]([C@@H](C)CC)C1=O [PP2087] | A (a compound having 10 or more and less than 20 is denoted as A) | A (a compound having 10 or more and less than 20 is denoted as A) |  |  | 
